Laboratory results from patent US20040033252A1, “Agents for recoverying from or preventing fatigue in the central nerve system and foods for recovering from or preventing fatigue” (priority 2000, published 2004).

Legend:
analbuminemia rats = experiment: Treadmill running test to exhaustion in analbuminemia rats (fatigue test); type: in vivo, rat; details: NAR; for Running time up to exhaustion: i.p., BCH 8 mg/kg and BCAA 250 mg/kg 1 h before running, albumin 1 g/kg 1.5 h before, mean ± SEM
Description: Three-week-old female analbuminemia rats (Japan SLC) that genetically lacked albumin in their blood plasma, which had been raised under light and dark cycles of 7:00 to 19:00 (light cycle) at room temperature 22° C., were subjected to the fatigue tests. Prior to the fatigue tests, the analbuminemia rats were subjected to training (20 m/min, 7% inclination) for 30 minutes, four times a week, during a predetermined period of time in 13:00 to 15:00, and this training lasted for four weeks so as to adapt them to running on the treadmill. After the training had been completed, all the analbuminemia rats (weight 210 to 255 g) were subjected to exhaustion tests on the treadmill under the same conditions, and time up to an exhaustion state was measured.
The rats, which were divided into four groups, were respectively treated with physiological saline (made by Otsuka Pharmaceutical Co., Ltd “0.9% physiological saline”), the BCH (made by Sigma K.K., NoA7902), the BCAA and albumin (made by Sigma K.K. A-6272 (Fraction V)). The dose of physiological saline was set to 5 ml/kg, that of the BCH was 8 mg/kg and that of the BCAA was 250 mg/kg, and these were given into the abdominal cavity one hour prior to the start of the running tests. Here, BCH, BCAA and albumin were respectively dissolved in physiological saline, and then administered. The dose of albumin was set to 1 g/kg, and given into the abdominal cavity one and half hours prior to the start of […]. […] These doses were determined so as to obtain sufficient effects, and in the case of actual doses to the human being, these can be changed appropriately depending on various factors.
(§1) These measured data were obtained by a analysis of variance (ANOVA) in one-way layout of Fisher's PLSD test by using multiple comparisons and repeated measurements, based upon the standard error. Next, the data were classified based upon running times, and analyzed by the Student's t-test based upon observation with paired t-test in the total effects of the BCAA and BCH treatment groups.

[1] = tested on: striatal synaptosome of analbuminemia rats; experiment: Tryptophan and metabolites in striatal synaptosome immediately after exhaustion (HPLC, electrochemical detector); type: in vivo, rat; details: for Concentration of 5-HIAA in striatal synaptosome / Concentration of 5-HT in striatal synaptosome / Concentration of 5-HTP in striatal synaptosome / Concentration of tryptophan in striatal synaptosome: NAR, immediately after exhaustion, mean ± SEM
Description: The head of each of the rats was sacrificed by decapitation immediately after the training so that the striatal synaptosome was separated, and tryptophan(Trp), 5-hydroxytryptophan (5-HTP), 5-hydroxytryptamin (5-HT) and 5-hydroxyindoleacetic acid (5-HIAA) were measured by high-performance liquid chromatography using an electrochemical detector. Moreover, the protein level in the P2 fraction was measured in accordance with the method of Lowry et al. (J. Protein measurements with the Folin phenol reagent, J. Biol. Chem. 193: 265-275; 1951).
as §1

rats = details: tryptophan 1 mM/30 min continuously injected into the brain; cited from earlier work
[2] = tested on: tryptophan-deficient rats; experiment: Treadmill running test to exhaustion in tryptophan-deficient rats given tryptophan-added food (Evaluation Test 3); type: in vivo, rat
Source text: Three-week-old female rats of Sprague-Dawley-type (each rat: 50 g) were raised for one month to a weight of 200 g [fed with normal food of AIN93G for one month (standard refined feed, made by Oriental Yeast, Co., Ltd., with the tryptophan being contained at 2.3 g/kg)], and from this time on, these were fed with the tryptophan-deficient food (adjusted feed in which only the tryptophan was removed from the above-mentioned AIN93G, with corn starch being used for compensating for the corresponding portion) for 16 days to form the tryptophan-deficient rats. Amino acids, contained in the normal food AIN93G, were respectively manufactured by AJINOMOTO CO., INC., and the respective contents (g) in 1 kg of feed were: alanine 5.6, arginine 6.8, aspartic acid 13.1, cystine 3.9, glutamic acid 39.6, glycine 3.4, histidine 5.6, isoleucine 10.1, leucine 17.5, lysine 14.9, methionine 5.6, phenyl alanine 9.5, proline 21.6, serine 9.7, threonine 7.7, tryptophan 2.3 (only contained in the tryptophan-containing food), tyrosine 10.4, and valine 12.6 (each of the amino acids having a purity of 100%). These rats were subjected to training for 30 minutes at a speed of 20 m/min (inclination: 7%) by treadmill running practice, three times a week, which started at the age of 3 weeks old, and lasted for 2 months. After the training had been completed, the rats were subjected to running loads on the treadmill at a speed of 20 m/min (inclination: 7%) up to exhaustion, and the running time was evaluated as the fatigue tests shown below. […] The evaluation was made by using inter-group comparisons (with paired t-test) of a Student's t-test.
To the tryptophan-deficient rats that had been subjected to the above-mentioned training were respectively given tryptophan-added food (AIN93G to which 2.3 g/kg of the tryptophan was added), and were then given physiological saline, a mixture of the BCH and the BCAA, the BCH and the BCAA, and comparison tests were carried out among the four groups. […]

[3] = tested on: tryptophan-deficient rats; experiment: Treadmill running test to exhaustion in tryptophan-deficient rats (Evaluation Test 2); type: in vivo, rat; details: i.p. 1 h before running, BCH 150 mg/kg, BCAA 250 mg/kg, mean ± standard error
Source text: Three-week-old female rats of Sprague-Dawley-type (each rat: 50 g) were raised for one month to a weight of 200 g [fed with normal food of AIN93G for one month (standard refined feed, made by Oriental Yeast, Co., Ltd., with the tryptophan being contained at 2.3 g/kg)], and from this time on, these were fed with the tryptophan-deficient food (adjusted feed in which only the tryptophan was removed from the above-mentioned AIN93G, with corn starch being used for compensating for the corresponding portion) for 16 days to form the tryptophan-deficient rats. Amino acids, contained in the normal food AIN93G, were respectively manufactured by AJINOMOTO CO., INC., and the respective contents (g) in 1 kg of feed were: alanine 5.6, arginine 6.8, aspartic acid 13.1, cystine 3.9, glutamic acid 39.6, glycine 3.4, histidine 5.6, isoleucine 10.1, leucine 17.5, lysine 14.9, methionine 5.6, phenyl alanine 9.5, proline 21.6, serine 9.7, threonine 7.7, tryptophan 2.3 (only contained in the tryptophan-containing food), tyrosine 10.4, and valine 12.6 (each of the amino acids having a purity of 100%). […] After the training had been completed, the rats were subjected to running loads on the treadmill at a speed of 20 m/min (inclination: 7%) up to exhaustion, and the running time was evaluated as the fatigue tests shown below. […]

Row | Compound | Running time up to exhaustion (analbuminemia rats) | Concentration of 5-HIAA in striatal synaptosome [1] | Concentration of 5-HT in striatal synaptosome [1] | Concentration of 5-HTP in striatal synaptosome [1] | Concentration of tryptophan in striatal synaptosome [1] | Onset of fatigue in the central nervous system or muscles (rats) | Extension of running time relative to physiological saline (analbuminemia rats; from Table 1) | Running time of single rats that have not reached exhaustion ([2]; BCH only-administration, two cases) | Running time up to exhaustion ([2]; tryptophan-deficient rats given tryptophan-added food, doses as in evaluation test 2, i.p. 1 h before, mean ± standard error, values >542 set as 542) | Running-time difference versus physiological saline group (average-value comparison) ([2]; tryptophan-deficient rats given tryptophan-containing food, not statistically significant) | Running time up to exhaustion [3] | Change in uptake of 5-HTP into striatal synaptosome versus physiological saline group ([1]; BCAA and BCH treated groups totaled, group B (time to exhaustion 190 to 271 minutes), p<0.025) | Change in uptake of tryptophan into striatal synaptosome versus physiological saline group ([1]; BCAA and BCH treated groups totaled, group B (time to exhaustion 190 to 271 minutes), p<0.05)
1 | Albumin: albumin made by Sigma K.K. A-6272 (Fraction V) | 96 ± 22 min | 3.30 ± 0.06 pmol/mg protein | 5.00 ± 0.47 pmol/mg protein | 1.45 ± 0.18 pmol/mg protein | 52.41 ± 8.97 pmol/mg protein |  |  |  |  |  |  |  | 
2 | N[C@@H](Cc1c[nH]c2ccccc12)C(=O)O [tryptophan] |  |  |  |  |  | exhibit the fatigue in the central nervous system or muscles in very early stage |  |  |  |  |  |  | 
3 | NC1(C(=O)O)CC2CCC1C2 (stereo not drawn) [BCH, 2-aminobicyclo-[2,2,1]-heptane-2-carboxylic acid] | 188 ± 33 min | 3.58 ± 0.21 pmol/mg protein | 5.20 ± 0.79 pmol/mg protein | 1.25 ± 0.17 pmol/mg protein | 53.43 ± 10.50 pmol/mg protein |  | approximately twice as long | 524 minutes and not less than 524 minutes | 428 ± 45 min | approximately 40 minutes | 308 ± 22 min | −23% | −19%
